{
  "source": "patent US20120294869A1",
  "about": "“Methods for Treating Fatty Liver Disease” (Nevada Cancer Institute, priority 2011, published 2012)",
  "key": {"[1]": {"test_system": "Primary hepatocytes from UPP-1-TG mice", "experiment": "Intracellular lipid droplet accumulation in primary hepatocytes (CARS)", "assay_type": "cell-based, mouse", "settings": "UPP-1-TG primary hepatocytes, 24 hour incubation, 100 μM Urd", "description": "(B) is a bar graph representing quantitative analysis of intracellular lipid level in 15 isolated hepatocytes from each group. Intracellular lipid level is defined as the square root of the CARS signal arising from the intracellular lipid droplets of each hepatocyte. Intracellular lipid level is normalized to 1 for WT hepatocytes.\nTo further confirm our results and to provide a more practical in vitro method, short term cultures of primary liver hepatocytes were generated. WT and UPP-1-TG mouse hepatocytes were isolated using a two-step collagenase perfusion technique initially described by Seglen (Seglen, P.O. (1976) Methods Cell Biol. 13: 29-83). Viability ranged from 80-90% as determined by trypan blue exclusion. Hepatocyte enrichment reached approximately 85-90%. Cells were monitored for albumin expression through 72 hours, with no discernible differences when compared to the initial isolation."}, "UPP-1-TG mice [2]": {"test_system": "UPP-1-TG mice", "experiment": "Raman spectroscopy of lipid-chain unsaturation in liver lipid droplets", "assay_type": "in vivo, mouse", "settings": "UPP-1-TG mice fed with Urd", "description": "Red and blue arrows point to 1445 cm^−1 and 1660 cm^−1 peaks, respectively. (B) is a graph showing that 11660/11445 is linearly dependent on lipid-chain unsaturation. (C) is a bar graph depicting lipid-chain unsaturation of liver lipid droplets as a function of WT and UPP-1-TG mice. Error bars represent standard deviation across 18 lipid droplets measured.\nIn control UPP-1-TG mice, the value of 11660/11445, which is a reliable measure of lipid-chain unsaturation (FIG. 4A-B; Rinia, H. A., et al (2008) Biophysical Journal 95: 4908-4914, 2008), was 1.05 (FIG. 4C). In UPP-1-TG mice fed with Urd, the 11660/11445 value of liver lipid droplets was 0.3. The 11660/11445 value of liver lipid droplets was 0.8 for control WT mice."}, "UPP-1-TG mice [3]": {"test_system": "UPP-1-TG mice", "experiment": "CARS imaging of liver lipid accumulation after dietary Urd supplementation", "assay_type": "in vivo, mouse", "settings": "Urd 2 to 5% in dry diet", "description": "Images are presented as 3-D stacks. (B) is a bar graph representing quantitative analysis of liver lipid in 18 probed volumes with xyz dimensions of 125×125×25 μm. Three mice per group were used for analysis. Lipid level is defined as the square root of the CARS signal arising from the lipid droplets. Lipid level is normalized to 1 for WT mice. Error bars represent the standard deviations. (C) is a graph depicting Raman spectroscopy analysis of lipid droplet composition.\nUsing CARS microscopy to image 100-micron thick sections of explanted liver tissues, the effect of the disruption of URD homeostasis on liver lipids was evaluated. As reprinted in FIG. 1, a dramatic difference in liver lipid accumulation among WT, UPP-1-KO and UPP-1-TG mice was observed. […] To confirm the results obtained through CARS microscopy, Oil Red O staining (specific for neutral triglycerides and lipids) of the frozen liver sections was conducted, which yielded similar results to the CARS technology (data not shown)."}, "UPP-2": {"test_system": "UPP-2", "settings": "mouse liver tissue; cited from earlier work"}, "[4]": {"experiment": "Fate of an i.p. tracer dose of [3H]Urd in mouse plasma", "assay_type": "in vivo", "settings": "for half-life: plasma, ip", "description": "The UPP-1-KO mouse was created by replacing a 2.5 kb fragment of the UPP-1 gene (including exons 4 and 5) with a 1.6 kb neomycin resistance expression cassette. See, e.g., Cao, D. et al. (2002) Cancer Res. 62: 2313-2317 and Cao, D. et al. (2005) J. Biol. Chem. 280: 21169-21175. […] The absence of UPP-1 phosphorolytic (UPase) activity was confirmed by determining the fate of a tracer dose (25 μCi/mouse) of [^3H]Urd injected intraperitoneally (i.p.) in mice. A very rapid disappearance of [^3H]Urd from the plasma of wild-type (WT) mice was observed, with a t1/2, of approximately […] due to active phosphorolysis.\nEnzymatic activity in liver was 10.7±0.3 nmol/hr/mg for the WT animals compared to 252±68 nmol/hr/mg for the transgenic. In WT mice, a tracer dose of [^3H]Urd (25 μCi, i.p.) was rapidly degraded with a t1/2, of approximately 4 minutes. […] Table 1 summarizes the concentrations of URD in WT C57BL/6 mice, the UPP-1-KO and the UPP-1-TG models."}},
  "note": "Read-outs that look alike come from different tables or passages of the source.",
  "data": [
    {"smiles": "O=c1ccn([C@@H]2O[C@H](CO)[C@@H](O)[C@H]2O)c(=O)[nH]1", "note": "[Urd, uridine]", "values": [
      {"measurement": "reduction in intracellular lipid droplet accumulation", "setting": "[1]", "result": 10, "unit": "fold"},
      {"measurement": "11660/11445 value of liver lipid droplets (lipid-chain unsaturation)", "setting": "UPP-1-TG mice [2]", "result": 0.3},
      {"measurement": "reduction of liver lipid accumulation", "setting": "UPP-1-TG mice [3]", "result": "~15", "unit": "fold"}
    ]},
    {"smiles": "O=S(=O)(c1ccccc1)N(CC(F)(F)F)c1ccc(C(O)(C(F)(F)F)C(F)(F)F)cc1", "note": "[T0901317]", "values": [
      {"measurement": "effect on UPP-2 expression in mouse liver", "setting": "UPP-2", "result": "potent induction"}
    ]},
    {"smiles": "O=c1ccn([C@@H]2O[C@H](CO)[C@@H](O)[C@H]2O)c(=O)[nH]1", "note": "[[^3H]Urd]", "values": [
      {"measurement": "half-life", "setting": "[4]; C57BL/6, mouse, 25 μCi/mouse, wild-type (WT) mice, tracer dose 25 μCi/mouse i.p., read-out: [3H]Urd plasma t1/2", "result": "~4", "unit": "min"},
      {"measurement": "[3H]Urd detectability after administration", "setting": "[4]; UPP-1-TG (ubiquitous UPP-1 transgenic), mouse, in vivo, 15 minutes", "result": "no [^3H]Urd detectable"},
      {"measurement": "half-life", "setting": "[4]; UPP-1-TG (ubiquitous UPP-1 transgenic), mouse, 25 μCi, UPP-1-TG mice, tracer dose 25 μCi i.p., read-out: [3H]Urd t1/2", "result": "< 0.5", "unit": "min"},
      {"measurement": "half-life", "setting": "[4]; mouse, 25 μCi/mouse, UPP-1-KO mice, tracer dose 25 μCi/mouse i.p., read-out: [3H]Urd plasma t1/2", "result": "15 to 18", "unit": "min"}
    ]}
  ]
}
